Data on 27 compounds can be found in US9914730B2, “Azaquinazoline inhibitors of Atypical protein Kinase C” (Ignyta, Inc., priority 2012, dated 2018).

Where a name gives a salt, the structure may show the parent alone.

In this assay the target is T1, full-length human PKCι (Homo sapiens, UniProt P41743).
T1 construct: Recombinant, full-length human PKCι expressed in Sf21 insect cells is also commercially available; purchased; host or cells: Sf21 insect cells
T1 sequence (P41743 1-596): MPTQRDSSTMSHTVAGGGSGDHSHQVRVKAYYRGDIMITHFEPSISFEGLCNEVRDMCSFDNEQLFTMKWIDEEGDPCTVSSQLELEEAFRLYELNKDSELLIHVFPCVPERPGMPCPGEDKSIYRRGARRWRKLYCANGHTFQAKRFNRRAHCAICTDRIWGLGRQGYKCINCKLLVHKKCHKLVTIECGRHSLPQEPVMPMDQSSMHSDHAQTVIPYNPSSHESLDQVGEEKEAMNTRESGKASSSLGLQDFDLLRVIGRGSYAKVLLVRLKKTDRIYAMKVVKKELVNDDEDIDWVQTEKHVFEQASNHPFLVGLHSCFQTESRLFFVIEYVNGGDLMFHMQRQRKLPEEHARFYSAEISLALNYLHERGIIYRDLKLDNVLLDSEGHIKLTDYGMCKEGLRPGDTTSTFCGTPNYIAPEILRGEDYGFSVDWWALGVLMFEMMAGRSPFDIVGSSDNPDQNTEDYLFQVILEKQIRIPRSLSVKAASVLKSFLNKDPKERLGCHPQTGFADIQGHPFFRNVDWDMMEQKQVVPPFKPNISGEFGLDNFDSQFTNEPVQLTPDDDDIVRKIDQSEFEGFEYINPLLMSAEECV
The assay is described as follows: PKCι IC50 IMAP assay, full-length PKCι at 150 μM ATP. In kind it is biochemical. The conditions noted are these: read-out: IC50 in IMAP assay against full length PKCi at 150 μM ATP. The method in brief:
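Compounds in 4% final DMSO are mixed with Sf21-derived full-length human PKCι (typically 15 pM) and 100 nM FAM-labelled pseudosubstrate peptide, then started with 150 μM ATP. Reaction runs 60 min at room temperature, is quenched with IMAP development reagent for 2 h, and fluorescence polarisation is measured to derive IC50.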
Take `N#CC1CCN(c2nc(-c3ccnc4[nH]c(C(F)(F)F)cc34)nc3cncc(C4CC4)c23)CC1` [Example 1241, 1-[5-Cyclopropyl-2-(2-trifluoromethyl-1H-pyrrolo[2,3-b]pyridin-4-yl)-pyrido[3,4-d]pyrimidin-4-yl]-piperidine-4-carbonitrile]: the half-maximal inhibitory concentration (IC50) lay within 100 to 1000 nM. For `OCC1CCN(c2nc(-c3ccnc4[nH]c(C(F)(F)F)cc34)nc3cncc(C4CC4)c23)CC1` [Example 1242, {1-[5-Cyclopropyl-2-(2-trifluoromethyl-1H-pyrrolo[2,3-b]pyridin-4-yl)-pyrido[3,4-d]pyrimidin-4-yl]-piperidin-4-yl}-methanol] the value was 1000 to 10000 nM; for `OCC1CN(c2nc(-c3ccnc4[nH]c(C(F)(F)F)cc34)nc3cncc(C4CC4)c23)C1` [Example 1243, {1-[5-Cyclopropyl-2-(2-tritluoromethyl-1H-pyrrolo[2,3-b]pyridin-4-yl)-pyrido[3,4-d]pyrimidin-4-yl]-azetidin-3-yl}-methanol], 1000 to 10000 nM. `OC1CCN(c2nc(-c3ccnc4[nH]c(C5(c6ccccc6)CC5)cc34)nc3cncc(C4CC4)c23)CC1` [Example 1244, 1-{5-Cyclopropyl-2-[2-(1-phenyl-cyclopropyl)-1H-pyrrolo[2,3-b]pyridin-4-yl]-pyrido[3,4-d]pyrimidin-4-yl}-piperidin-4-ol]: the IC50 is below 100 nM. For `O=S1(=O)CCN(c2nc(-c3ccnc4[nH]c(C(F)(F)F)cc34)nc3cncc(C4CC4)c23)CC1` [Example 1245, 5-Cyclopropyl-4-(1,1-dioxo-1λ^6-thiomorpholin-4-yl)-2-(2-trifluoromethyl-1H-pyrrolo[2,3-b]pyridin-4-yl)-pyrido[3,4-d]pyrimidine] the value was 10000 to 40000 nM. The figure for `FC(F)(F)c1cc2c(-c3nc(N4CCSCC4)c4c(C5CC5)cncc4n3)ccnc2[nH]1` [Example 1246, 5-Cyclopropyl-4-thiomorpholin-4-yl-2-(2-trifluoromethyl-1H-pyrrolo[2,3-b]pyridin-4-yl)-pyrido[3,4-d]pyrimidine] is 10000 to 40000 nM. The figure for `CC(C)(C)c1cc2c(-c3nc(N4CCC(O)CC4)c4c(C5CC5)cncc4n3)ccnc2[nH]1` [Example 1247, 1-[2-(2-tert-Butyl-1H-pyrrolo[2,3-b]pyridin-4-yl)-5-cyclopropyl-pyrido[3,4-d]pyrimidin-4-yl]-piperidin-4-ol] is below 100 nM; for `FC(F)(F)c1cc2c(-c3nc(N4CCC4)c4c(C5CC5)cncc4n3)ccnc2[nH]1` [Example 1248, 4-Azetidin-1-yl-5-cyclopropyl-2-(2-trifluoromethyl-1H-pyrrolo[2,3-b]pyridin-4-yl)-pyrido[3,4-d]pyrimidine] it is 10000 to 40000 nM; for `CC(C)(C)c1cc2c(-c3nc(N4CCNC(=O)CC4)c4c(C5CC5)cncc4n3)ccnc2[nH]1` [Example 1249, 1-[2-(2-tert-Butyl-1H-pyrrolo[2,3-b]pyridin-4-yl)-5-cyclopropyl-pyrido[3,4-d]pyrimidin-4-yl]-[1,4]diazepan-5-one] it is below 100 nM. On to `CC(C)(C)c1cc2c(-c3nc(N4CC[C@@H](O)C4)c4c(C5CC5)cncc4n3)ccnc2[nH]1` [Example 1250, (R)-1-[2-(2-tert-Butyl-1H-pyrrolo[2,3-b]pyridin-4-yl)-5-cyclopropyl-pyrido[3,4-d]pyrimidin-4-yl]-pyrrolidin-3-ol], for which the 50% inhibitory concentration (IC50) is below 100 nM.

For `CC1(C)CN(c2nc(-c3ccnc4[nH]c(C(F)(F)F)cc34)nc3cncc(C4CC4)c23)CCN1` [Example 1251, 5-Cyclopropyl-4-(3,3-dimethyl-piperazin-1-yl)-2-(2-trifluoromethyl-1H-pyrrolo[2,3-b]pyridin-4-yl)-pyrido[3,4-d]pyrimidine], the IC50 is below 100 nM.

On to `c1cc(-c2nc(N3CCNCC3)c3c(C4CC4)cncc3n2)c2c(n1)NC1(CCCCC1)C2` [Example 1252, 4-(5-cyclopropyl-4-piperazin-1-yl-pyrido[3,4-d]pyrimidin-2-yl)spiro[1,3-dihydropyrrolo[2,3-b]pyridine-2,1′-cyclohexane]], for which the IC50 was below 100 nM. As to `c1ccc2c(c1)[nH]c1nccc(-c3nc(N4CCNCC4)c4c(C5CC5)cncc4n3)c12` [Example 1253, 4-(5-Cyclopropyl-4-piperazin-1-yl-pyrido[3,4-d]pyrimidin-2-yl)-9H-pyrido[2,3-b]indole trifluoroacetic acid salt], the 50% inhibitory concentration (IC50) is below 100 nM. For `OC1CCN(c2nc(-c3ccnc4[nH]c5ccccc5c34)nc3cncc(C4CC4)c23)CC1` [Example 1254, 1-[5-cyclopropyl-2-(9H-pyrido[2,3-b]indol-4-yl)-pyrido[3,4-d]pyrimidin-4-yl]-piperidin-4-ol trifluoroacetic acid salt] the value was 100 to 1000 nM.

For `CC1(C)CN(c2nc(-c3ccnc4[nH]c5ccccc5c34)nc3cncc(C4CC4)c23)CCN1` [Example 1255, 4-[5-Cyclopropyl-4-(3,3-dimethyl-piperazin-1-yl)-pyrido[3,4-d]pyrimidin-2-yl]-9H-pyrido[2,3-b]indole trifluoroacetic acid salt], the IC50 is below 100 nM.

Take `C[C@H]1CN(c2nc(-c3ccnc4[nH]c(C(C)(C)C)cc34)nc3cncc(C4CC4)c23)CCN1` [Example 2001, 2-(2-tert-Butyl-1H-pyrrolo[2,3-b]pyridin-4-yl)-5-cyclopropyl-4-((S)-3-methyl-piperazin-1-yl)-pyrido[3,4-d]pyrimidine]: the half-inhibitory concentration (IC50) was below 100 nM.

Turning to `CC1(C)CN(c2nc(-c3ccnc4[nH]c(C(C)(C)C)cc34)nc3cncc(C4CC4)c23)CCN1` [Example 2002, 2-(2-tert-Butyl-1H-pyrrolo[2,3-b]pyridin-4-yl)-5-cyclopropyl-4-(3,3-dimethyl-piperazin-1-yl)-pyrido[3,4-d]pyrimidine], the IC50 is below 100 nM. For `CN(C)C(=O)c1ccc(Nc2cc(-c3nc(N4CCNCC4)c4c(C5CC5)cncc4n3)ccn2)cc1` [Example 2003, 4-[4-(5-Cyclopropyl-4-piperazin-1-yl-pyrido[3,4-d]pyrimidin-2-yl)-pyridin-2-ylamino]-N,N-dimethyl-benzamide] the value was below 100 nM; for `C[C@H]1CN(c2nc(-c3ccnc(Nc4nc(F)cc(F)c4F)c3)nc3cncc(C4CC4)c23)CCN1` [Example 2004, {4-[5-Cyclopropyl-4-((S)-3-methyl-piperazin-1-yl)-pyrido[3,4-d]pyrimidin-2-yl]-pyridin-2-yl}-(3,4,6-trifluoro-pyridin-2-yl)-amine], below 100 nM; for `C[C@@H](Nc1cc(-c2nc(N3CCNC(C)(C)C3)c3c(C4CC4)cncc3n2)ccn1)C1CC1` [Example 2006, {4-[5-Cyclopropyl-4-(3,3-dimethyl-piperazin-1-yl)-pyrido[3,4-d]pyrimidin-2-yl]-pyridin-2-yl}-((R)-1-cyclopropyl-ethyl)-amine], below 100 nM.

Turning to `C[C@@H](Nc1cc(-c2nc(N3CCNC(C)(C)C3)c3c(C4CC4)cncc3n2)ccn1)c1ccccc1` [Example 2007, {4-[5-Cyclopropyl-4-(3,3-dimethyl-piperazin-1-yl)-pyrido[3,4-d]pyrimidin-2-yl]-pyridin-2-yl}-((R)-1-phenyl-ethyl)-amine], the IC50 was below 100 nM. For `C[C@H]1CN(c2nc(-c3ccnc4[nH]c(C(C)(C)C)cc34)nc3cncc(C4CCC4)c23)CCN1` [Example 2008, 2-(2-tert-Butyl-1H-pyrrolo[2,3-b]pyridin-4-yl)-5-cyclobutyl-4-((S)-3-methyl-piperazin-1-yl)-pyrido[3,4-d]pyrimidine] the value was below 100 nM; for `Fc1ccccc1C1(c2cc3c(-c4nc(N5CCNCC5)c5c(C6CC6)cncc5n4)ccnc3[nH]2)CC1` [Example 2009, 5-Cyclopropyl-2-{2-[1-(2-fluoro-phenyl)-cyclopropyl]-1H-pyrrolo[2,3-b]pyridin-4-yl}-4-piperazin-1-yl-pyrido[3,4-d]pyrimidine], below 100 nM; for `CC(C)(C)c1cc2c(-c3nc(N4CCNCC4)c4c(C5CCC5)cncc4n3)ccnc2[nH]1` [Example 2010, 2-(2-tert-Butyl-1H-pyrrolo[2,3-b]pyridin-4-yl)-5-cyclobutyl-4-piperazin-1-yl-pyrido[3,4-d]pyrimidine], below 100 nM. For `Fc1cc(F)nc(Nc2cc(-c3nc(N4CCNCC4)c4c(C5CCC5)cncc4n3)ccn2)c1` [Example 2011, [4-(5-Cyclobutyl-4-piperazin-1-yl-pyrido[3,4-d]pyrimidin-2-yl)-pyridin-2-yl]-(4,6-difluoro-pyridin-2-yl)-amine] the value was below 100 nM; for `c1cc(-c2nc(N3CCNCC3)c3c(C4CC4)cncc3n2)cc(Nc2nc3ccc(C4CC4)cn3n2)n1` [Example 2012, [4-(5-Cyclopropyl-4-piperazin-1-yl-pyrido[3,4-d]pyrimidin-2-yl)-pyridin-2-yl]-(6-cyclopropyl-[1,2,4]triazolo[1,5-a]pyridin-2-yl)-amine], below 100 nM; for `Fc1cc(C2CCC2)cnc1Nc1cc(-c2nc(N3CCNCC3)c3c(C4CC4)cncc3n2)ccn1` [Example 2013, (5-Cyclobutyl-3-fluoro-pyridin-2-yl)-[4-(5-cyclopropyl-4-piperazin-1-yl-pyrido[3,4-d]pyrimidin-2-yl)-pyridin-2-yl]-amine], below 100 nM.

For orientation: IC50 means the concentration needed to halve the response being measured.
